Results from patent US12416018B2, “Regulation of gene expression by aptamer-mediated modulation of alternative splicing” (MEIRAGTX GENE REGULATION LIMITED, priority 2015, dated 2025).
Entries after “also recorded” stand apart in the source; their conditions may differ. Like-named read-outs stand apart in the source and are kept apart here.

Columns and labels:
[1] = tested on: luciferase expression in HEK 293 cells; type: cell-based; details: for luciferase expression with / without theophylline (in words): HEK 293 cells
Source text: A DHFR-acceptor vector was constructed to facilitate the cloning of an aptamer sequence attached to the hairpin stems with different length. The theophylline aptamer sequence used was: ggcgatac[…]gcagegtc (SEQ ID NO:9). Theophylline aptamer oligonucleotides (“oligos”) with 4 nucleotide overhang at 5′ end were synthesized (IDT), annealed and ligated to BsaI-digested DHFR-acceptor vector. HEK 293 cells were transfected with the luciferase reporter constructs with the regulation cassette containing the theophylline aptamer, as described in Example 1. Four hours after transfection, the media was aspirated, and new media with or without 3 mM theophylline was added, and luciferase was assayed 20 to 24 hours after theophylline treatment. The fold induction was expressed as the quotient of luciferase activity obtained in the presence of aptamer ligand divided by the value obtained in the absence of the aptamer ligand.

[2] = tested on: luciferase gene with two copies of the xpt-G15 containing regulatory cassette (xpt-G15 double); experiment: Live animal bioluminescence imaging after hydrodynamic DNA delivery to mouse liver; type: in vivo, mice
Procedure: Hydrodynamic DNA delivery and drug treatment: 5 μg or 10 μg of endotoxin-free plasmid DNA containing the luciferase gene with two copies of the xpt-G15 containing regulatory cassette (xpt-G15 double, SEQ ID NO.: 64; Example 8, FIG. 8a), diluted in saline (Qiagen Endofree kit) was injected through tail vein in a volume of 10% body weight over 5 to 10 seconds to 6-7 weeks old CD-1 female mice. Guanosine (Sigma) was suspended in 0.5% methylcellulose/0.25% Tween 80 (Sigma) in water freshly and administrated orally at 2 hr and 12 hr post DNA injection, or, delivered through intraperitoneal injection (IP) at 5 hr, 12 hr, 16 hr and 24 hr post DNA delivery.
Noninvasive live animal bioluminescence imaging: before imaging, mice were anesthesized with 2% isoflurane, and injected with […] body weight of luciferin, and images were taken within 2 to 5 minutes after luciferin injection using Bruker Xtreme system at the indicated time point post DNA injection. Luciferase activity was expressed as mean photon/sec±s.d. The induction fold was calculated as the quotient of photon/sec obtained in mice treated with guanosine divided by value obtained in mice without guanosine treatment.

[3] = tested on: luciferase expression in HEK 293 cells; type: cell-based; details: for fold induction of luciferase expression over un-induced baseline: 500 µM; for induced luciferase level as percent of Con1 (maximal expression): guanine treatment (500 μM), HEK 293 cells; for regulation of luciferase expression by guanine (in words): with or without 500 μM guanine
Procedure: (§1) Xpt-guanine aptamer with the following sequence: cactcatataat[…]cgact atgggtg (SEQ ID NO.: 10), was used to construct a riboswitch. Oligos containing the sequence of guanine aptamer and hairpin stem with 4 nucleotide 5′ overhang were synthesized (IDT), annealed and then ligated to BsaI-digested DHFR-acceptor vector. HEK 293 cells were transfected as described in Example 1. Four hours after transfection, the media was aspirated, and new media with or without 500 μM guanine was added. Luciferase expression was assayed 20 to 24 hrs after guanine treatment as described in Example 1 and Example 4. HepG2, AML12, RD and C2C12 (ATCC) were cultured using the protocol recommended by ATCC. The intron-exon-intron cassette containing the xpt-G17 riboswitch (SEQ ID NO.: 15) was inserted in the leader peptide sequences of the anti-KDR antibody gene and into the Stul site in mouse erythropoietin gene using Gibson cloning strategy (NEB). Constructs containing mouse erythropoietin (Epo) or anti-KDR antibody were transfected into HEK 293 cells. Four hour after transfection, the media was aspirated, and new media with or without 500 μM guanine was added. Supernatants were subjected to ELISA assay for the production of either anti-KDR antibody or the production of mouse Epo (R&D Systems).
(§2) Constructs were made using Golden Gate cloning strategy (NEB). […] Luciferase activity was assayed as described in Example 5.
The Con1 construct was used as a template for PCR amplification of intron fragments that have either upstream or downstream intron deletions. To generate constructs that have single intron deletions, PCR products were cloned into the constructs containing the xpt-G17 riboswitch using Golden Gate cloning strategy (NEB). To generate constructs with both upstream and downstream intron deletions, fragments released by EcoRI and BamHI from constructs with single deletions in the downstream intron sequence were cloned into EcoRI and BamHI-digested constructs with single deletions in the upstream intron sequence.
Sequences of mutant human Wilms tumor 1 exon 5 (mutWT1-e5, SEQ ID NO.: 61), SIRT1 exon 6 (SIRT1-e6, SEQ ID NO.: 62), mouse calcium/calmodulin-dependent protein kinase II delta exon 16, or 17 (Camk2d-e16 or e17, SEQ ID NOs.: 59, 60), and synthetic exon ENEEE (SEQ ID NO.: 63) were synthesized (IDT) and cloned into the DHFR-G17 vector in place of the DHFR exon using Gibson Cloning kit (NEB). Plasmid DNA was transfected into HEK 293 cells, treated with 500 μM guanine, and luciferase assay performed as described in Example 1. The sequences of each exon with 5′ and 3′ splice sites are shown with exonic sequences in uppercase letters (Table 5, SEQ ID NOS.: 59 to 63).

[4] = tested on: luciferase expression in HepG2 cells; type: cell-based
Procedure: as §1

[5] = tested on: xpt-G17 containing cassette; experiment: Guanine dose response of luciferase expression, single xpt-G17 cassette; type: cell-based; details: single copy xpt-G17 cassette
Procedure: as §2

xpt-G15 double cassette = experiment: Guanine dose response of luciferase expression, xpt-G15 double; type: cell-based
Procedure: as §2

[6] = tested on: firefly luciferase gene expression in HEK 293 cells; experiment: Firefly luciferase assay of HEK 293 cells transfected with splicing / Intron-Exon-Intron constructs (no ligand); type: cell-based
Procedure: Transfection: 3.5×10^4 HEK 293 cells were plated in 96-well flat bottom plate the day before transfection. Plasmid DNA (500 ng) was added to a tube or a 96-well U-bottom plate. Separately, TransIT-293 reagent (Mirus; 1.4 uL) was added to 50 μL Opti-mem I media (Life Technologies), and allowed to sit for 5 minutes at room temperature (RT). Then, 50 μL of this diluted transfection reagent was added to the DNA, mixed, and incubated at room temperature (“RT”) for 20 min. Finally, 7 μL of this solution was added to a well of cells in the 96-well plate.
Firefly luciferase assay of cultured cells: 24 hours after media change, plates were removed from the incubator, and equilibrated to RT for several minutes on a lab bench, then aspirated. Glo-lysis buffer (Promega, 100 μL, RT) was added, and the plates allowed to remain at RT for at least 5 minutes. Then, the well contents were mixed by 50 μL trituration, and 20 μL of each sample was mixed with 20 μL of bright-glo reagent (Promega) that had been diluted to 10% in glo-lysis buffer. 96 wells were spaced on an opaque white 384-well plate. Following a 5 min incubation at RT, luminescence was measured using Tecan machine with 500 mSec read time. The luciferase activity was expressed as mean relative light unit (RLU)±S.D.
The constructs were verified by DNA sequencing (Genewiz). DNA was transfected in HEK 293 cells and assayed for luciferase activity as described in Example 1.
Sequences containing the DHFR exon 2 with native 3′ and 5′ ss sequences, in which the 5′ss was embedded in a hairpin structure were synthesized (IDT), and cloned into the indicated vector using Golden Gate cloning strategy (NEB). Constructs were transfected into HEK 293 cells and assayed for luciferase activity as described in Example 1.

How did the “luciferase expression with / without theophylline (in words)” value [1] turn out when “DHFR_Theo14: theophylline aptamer cassette, 7 bp stem (chain 1 TTCAGTAGAAGGTAATGTA; chain 2 GACATTACGCACCAT; expressed or natural sequence)” was run?
The value was “no luciferase expression either with or without theophylline”.

Which results are given for `Nc1nc2c(ncn2[C@@H]2O[C@H](CO)[C@@H](O)[C@H]2O)c(=O)[nH]1` [guanosine]?
fold induction at 100 mg/kg ([2]; Mus musculus, ip, 100 mg/kg guanosine intraperitoneally, 11 hours post DNA injection, read-out: fold induction of luciferase compared to uninduced baseline): 4.7; fold induction at 300 mg/kg ([2]; Mus musculus, ip, 300 mg/kg guanosine intraperitoneally, 11 hours post DNA injection, read-out: fold induction of luciferase compared to uninduced baseline): 16.2; luciferase expression in liver after oral guanosine (in words) ([2]; oral dosing 2 hr and 12 hr after DNA delivery): higher luciferase expression at 9 hours post DNA; also recorded: dose related activation of expression of the regulated target gene in the liver of the mice; time of highest luciferase expression post DNA injection ([2]; oral guanosine): 48 h

For “DHFR_G16: luciferase construct with xpt-guanine aptamer cassette, truncated stem (chain 1 GTAGAAGGTAATGTTAT; chain 2 CTAACATTACGCAC; chemistry not fully specified)”, which “fold induction of luciferase expression over un-induced baseline” value [3] is on record?
The value was “about 800 fold”.

And the “induced luciferase level as percent of Con1 (maximal expression)” value (shortened to “induced luciferase level as percent”) [3]?
The value was 83%.

For “DHFR_Theo13: theophylline aptamer cassette, 8 bp stem (chain 1 TTCAGTAGAAGGTAATGTGA; chain 2 GCACATTACGCACCAT; chemistry not fully specified)”, which “luciferase expression with / without theophylline (in words)” value [1] is on record?
The value was “luciferase expression is suppressed in the absence of theophylline”.

And the “luciferase level as percent of Con1 control vector” value ([1]; in the presence of theophylline (3 mM))?
The value was “about 56%”.

How did the “induced luciferase level as percent” value [3] turn out when “DHFR_G14: luciferase construct with xpt-guanine aptamer cassette, truncated stem (chain 1 GTAGAAGGTAATGTGATAT; chain 2 CTATCACATTACGCAC; expressed or natural sequence)” was run?
The value was about 100%.

Which “fold induction of luciferase expression” value [4] does the source give for “DHFR_G17: luciferase construct containing xpt-G17 regulatory cassette (SEQ ID NO: 15) (chain 1 GTAGAAGGTAATGTAT; chain 2 CTACATTACGCAC; chemistry not fully specified)” here?
The value was “more than 500 fold”.

And the “induced luciferase level as percent” value [3]?
The value was “about 65%”.

For “DHFR_G15: luciferase construct with the xpt-G15 containing regulatory cassette (SEQ ID NO: 46) (chain 1 GTAGAAGGTAATGTGTAT; chain 2 CTACACATTACGCAC; chemistry not fully specified)”, which “fold induction of luciferase expression over un-induced baseline” value [3] is on record?
The value was 60 fold.

And the “induced luciferase level as percent” value [3]?
The value was about 100%.

What does the source list for `Nc1nc2nc[nH]c2c(=O)[nH]1` [guanine]?
EC50 [5]: 206 µM; EC50 for xpt-G15 double relative to single xpt-G17 (times lower) (xpt-G15 double cassette; xpt-G15 double vs xpt-G17): 5 times; EC50 (xpt-G15 double cassette; xpt-G15 double, luciferase): 43 µM

B1: DHFR_wtmtSRp40_HP15x: DHFR_wtmtSRp40 with broken hairpin; SEQ ID NO: 57 (nucleic acid)
DNA: GAGTAACGCTGTTTCTCTAACTTGTAGGAATGAATTCAGATATTTCCAGAGAATGAAAAAAAAATCTTCAGTAGAAGGTAATGTGGCGAAAAACAGAACTGAGTAT
modifications: expressed or natural sequence
For B1, which “luciferase expression relative to control constructs (in words)” value [6] is on record?
Its value is “blocked luciferase expression; also recorded: prevents expression of luciferase”.

B2: Camk2d-e16: DHFR-G17 vector with mouse calcium/calmodulin-dependent protein kinase II delta exon 16 in place of DHFR exon; SEQ ID NO: 59 (nucleic acid)
DNA: GAGTAACGCTGTTTCTCTAACTTGTAGTGAGCCCCAAACTACTGTAATCCACAACCCTGACGGAAACAAGGTAATGT
How did the “regulation of luciferase expression by guanine (in words)” value ([3]; listed as CaMKIId-e16) turn out when B2 was run?
Its value is “equivalent fold induction to the DHFR exon with SRp40 activating mutation (mtDHFR)”.

And the “regulation of luciferase expression by guanine (in words)” value ([3]; listed as CamkIId-e16)?
Its value is “nearly equivalent fold induction compared to DHFR-xpt-G17”.

B3: 2IR-3: xpt-G17 cassette, two intron deletions; SEQ ID NO: 31 (nucleic acid)
DNA: GTGAGTCTATGGGACCCTTGATGTTTTCTTTCCCTGCTCAAATCAGGGTAATTTTGCATTTGTAATTTTAAAAAATGCTTTCTTCTTTTAATATACTTTTTTGTTTATCTTATTTCTAATACTTTCCCTAATCTCTTTCTTTCAGGGCAATAATGATACAATGTATCATGCCGAGTAACGCTGTTTCTCTAACTTGTAGGAATGAATTCAGATATTTCCAGAGAATGAAAAAAAAATCTTCAGTAGAAGGTAATGTATAATCGCGTGGATATGGCACGCAAGTTTCTACCGGGCACCGTAAATGTCCGACTACATTACGCACCATTCTAAAGAATAACAGTGATAATTTCTGGGTTAAGGCAATAGCTGCTGAGGTTTCATATTGCTAATAGCAGCTACAATCCAGCTACCATTCTGCTTTTATTTTATGGTTGGGATAAGGCTGGATTATTCTGAGTCCAAGCTAGGCCCTTTTGCTAATCATGTTCATACCTCTTATCTTCCTCCCACAG
modifications: xpt-G17-2IR-3
Which results are given for B3?
fold induction of luciferase expression over un-induced baseline [3]: 4744 fold; regulation of luciferase expression by guanine (in words) [3]: significant increase in the fold of target gene expression
